{"source": "patent US7396837B2", "about": "“Antitumoral analogs of lamellarins” (Pharma Mar, S.A.U., priority 2002, dated 2008)", "key": {"H-MEC-1 [1]": {"test_system": "H-MEC-1", "assay": "SRB colorimetric cell growth inhibition assay, H-MEC-1", "assay_type": "cell-based", "details": "Homo sapiens, HMEC-1, H-MEC-1; for GI50: GI=growth inhibition, read-out: GI50 H-MEC-1; for IC (TGI): total growth inhibition (cytostatic effect), read-out: TGI H-MEC-1", "procedure,_shortened": "(§1)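 Growth inhibition (GI), total growth inhibition (TGI, cytostatic) and lethal concentration (LC, cytotoxic) come from an SRB-based colorimetric measure of growth and viability. Data are triplicate-well means ± SD.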"}, "[2]": {"assay": "SRB colorimetric cell growth inhibition assay, H-MEC-1", "assay_type": "cell-based", "details": "human, H-MEC-1, cell killing (cytotoxic effect), read-out: LC50 H-MEC-1", "procedure,_shortened": "as §1"}, "SKOV-3 [3]": {"test_system": "SKOV-3", "assay": "SRB colorimetric cell growth inhibition assay, SKOV-3", "assay_type": "cell-based", "details": "Homo sapiens; for GI50: SK-OV-3, SKOV-3, GI=growth inhibition, read-out: GI50 SKOV-3; for LC50 (concentration causing 50% net cell killing) / IC (TGI): SK-OV-3, SKOV-3; for LC50 (concentration causing 50% net cell killing): cell killing (cytotoxic effect), read-out: LC50 SKOV-3; for IC (TGI): total growth inhibition (cytostatic effect), read-out: TGI SKOV-3", "procedure,_shortened": "as §1"}, "human topoisomerase I": {"target": "T1, human topoisomerase I (Homo sapiens, UniProt P11387)", "T1 sequence (P11387 1-765)": "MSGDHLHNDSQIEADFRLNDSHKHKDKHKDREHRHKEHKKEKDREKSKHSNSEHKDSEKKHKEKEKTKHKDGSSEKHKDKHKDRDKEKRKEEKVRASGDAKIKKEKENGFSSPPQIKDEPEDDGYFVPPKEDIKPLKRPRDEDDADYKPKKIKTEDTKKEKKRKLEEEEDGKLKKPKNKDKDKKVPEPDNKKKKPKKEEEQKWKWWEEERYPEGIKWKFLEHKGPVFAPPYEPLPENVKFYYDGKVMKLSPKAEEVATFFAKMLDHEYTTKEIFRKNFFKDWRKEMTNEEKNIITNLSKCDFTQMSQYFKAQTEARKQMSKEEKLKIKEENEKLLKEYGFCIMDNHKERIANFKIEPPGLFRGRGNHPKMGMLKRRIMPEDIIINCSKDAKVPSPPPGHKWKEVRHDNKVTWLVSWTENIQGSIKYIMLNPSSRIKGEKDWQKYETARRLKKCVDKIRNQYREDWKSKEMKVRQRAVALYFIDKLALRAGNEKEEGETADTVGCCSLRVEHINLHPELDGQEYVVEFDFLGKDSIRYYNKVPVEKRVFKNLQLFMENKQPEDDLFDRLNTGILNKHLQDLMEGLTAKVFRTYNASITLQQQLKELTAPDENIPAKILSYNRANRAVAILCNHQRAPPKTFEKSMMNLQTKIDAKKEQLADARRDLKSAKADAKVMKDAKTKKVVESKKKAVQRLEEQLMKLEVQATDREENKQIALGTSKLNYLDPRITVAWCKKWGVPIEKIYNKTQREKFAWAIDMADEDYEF", "assay": "Topoisomerase I cleavage of radiolabeled 117-bp DNA fragment", "assay_type": "biochemical", "details": "117-bp DNA restriction fragment 3' end-labeled; for topoisomerase I-mediated DNA cleavage sites / cleavage profile: sequencing-type polyacrylamide gels", "description": "Two assays, based on DNA relaxation and DNA cleavage (Bailly, C. DNA relaxation and cleavage assays to study topoisomerase I inhibitors. Methods Enzymol. 2001, 340, 610-623) were used evaluate the effects of the lamellarin analogs on the catalytic activity of human topoisomerase I.\nA second assay, based on the cleavage of a radiolabeled DNA substrate by topoisomerase I, was used to confirm that the cationic lamellarin derivatives do effectively function as topoisomerase I poisons. A 117-bp DNA restriction fragment uniquely end-labeled at the 3′ end was subjected to cleavage by topoisomerase I in the presence of the different compounds and the resulting DNA cleavage products were resolved on sequencing-type polyacrylamide gels. The advantage of this assay is to detect the cleavage sites and to locate their positions with nucleotide resolution, providing thus information on the site selectivity of cleavage."}, "[4]": {"assay": "SRB colorimetric cell growth inhibition assay, H-MEC-1", "assay_type": "cell-based", "details": "human, H-MEC-1, LC=cell killing (cytotoxic effect), read-out: LC50 H-MEC-1", "procedure,_shortened": "(§2)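 Growth and viability quantified by sulforhodamine B staining in 96-well microplates. Triplicate wells give mean ± SD; derived endpoints are GI, TGI (cytostatic) and LC (cytotoxic).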"}, "SKOV-3 [5]": {"test_system": "SKOV-3", "assay": "SRB colorimetric cell growth inhibition assay, SKOV-3", "assay_type": "cell-based", "details": "Homo sapiens; for GI50: SK-OV-3, SKOV-3, GI=growth inhibition, read-out: GI50 SKOV-3; for IC (TGI): TGI=total growth inhibition (cytostatic effect), read-out: TGI SKOV-3", "procedure,_shortened": "as §2"}, "H-MEC-1 [6]": {"test_system": "H-MEC-1", "assay": "SRB colorimetric cell growth inhibition assay, H-MEC-1", "assay_type": "cell-based", "details": "Homo sapiens, HMEC-1, H-MEC-1; for GI50: GI=growth inhibition; for IC (TGI): TGI=total growth inhibition (cytostatic effect), read-out: TGI H-MEC-1", "procedure,_shortened": "as §2"}, "HeLa-APL": {"test_system": "HeLa-APL", "assay": "SRB colorimetric cell growth inhibition assay, HeLa-APL (aplidine resistant)", "assay_type": "cell-based", "details": "Homo sapiens, HELA-APL", "procedure,_shortened": "(§3)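 Continuous drug exposure of human cancer cells; SRB protein stain read-out; triplicate wells, mean ± SD; GI, TGI, LC computed.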"}, "HeLa": {"test_system": "HeLa", "assay": "SRB colorimetric cell growth inhibition assay, HeLa", "assay_type": "cell-based", "details": "Homo sapiens, HeLa", "procedure,_shortened": "as §3"}, "[7]": {"details": "SK-OV-3, SKOV-3, LC=cell killing (cytotoxic effect), read-out: LC50 SKOV-3"}}, "note": "Like-named read-outs stand apart in the source and are kept apart here.", "data": [{"molecule": "COc1cc(-c2c3n(c4c(=O)oc5cc(OC(=O)[C@H](NC(=O)OC(C)(C)C)C(C)C)c(OC)cc5c24)CCc2cc(OC(=O)[C@H](NC(=O)OC(C)(C)C)C(C)C)c(OC)cc2-3)ccc1OC(=O)[C@H](NC(=O)OC(C)(C)C)C(C)C", "note": "[Compound 34]", "values": [{"measurement": "GI50", "setting": "H-MEC-1 [1]", "result": 244, "unit": "nM"}, {"measurement": "IC (TGI)", "setting": "H-MEC-1 [1]", "result": 653, "unit": "nM"}, {"measurement": "LC50 (concentration giving 50% net cell killing)", "setting": "[2]", "result": 3440, "unit": "nM"}, {"measurement": "GI50", "setting": "SKOV-3 [3]", "result": 1270, "unit": "nM"}, {"measurement": "LC50 (concentration causing 50% net cell killing)", "setting": "SKOV-3 [3]", "result": 6650, "unit": "nM"}, {"measurement": "IC (TGI)", "setting": "SKOV-3 [3]", "result": 2910, "unit": "nM"}]}, {"molecule": "COc1cc(-c2c3c4cc(OC)c(OC(=O)[C@@H](N)C(C)C)cc4oc(=O)c3n3ccc4cc(OC(=O)[C@@H](N)C(C)C)c(OC)cc4c23)ccc1OC(=O)[C@@H](N)C(C)C", "note": "[Compound 36]", "values": [{"measurement": "GI50", "setting": "H-MEC-1 [1]", "result": 2.65, "unit": "nM"}, {"measurement": "IC (TGI)", "setting": "H-MEC-1 [1]", "result": 8.6, "unit": "nM"}, {"measurement": "LC50 (concentration giving 50% net cell killing)", "setting": "[2]; H-MEC-1 cells", "result": 1350, "unit": "nM"}, {"measurement": "GI50", "setting": "SKOV-3 [3]", "result": 39.2, "unit": "nM"}, {"measurement": "LC50 (concentration causing 50% net cell killing)", "setting": "SKOV-3 [3]", "result": 5890, "unit": "nM"}, {"measurement": "IC (TGI)", "setting": "SKOV-3 [3]", "result": 297, "unit": "nM"}, {"measurement": "stimulation of DNA cleavage by topoisomerase I (radiolabeled DNA substrate)", "setting": "human topoisomerase I", "result": "no difference between the (L) (36) and (D) (17) Val isomers"}, {"measurement": "topoisomerase I-mediated DNA cleavage sites / cleavage profile", "setting": "human topoisomerase I", "result": "Cleavage profiles identical to that of 3"}]}, {"molecule": "COc1cc(-c2c3c4cc(OC)c(OC(=O)[C@@H](NC(=O)OC(C)(C)C)C(C)C)cc4oc(=O)c3n3ccc4cc(OC(=O)[C@@H](NC(=O)OC(C)(C)C)C(C)C)c(OC)cc4c23)ccc1OC(=O)[C@@H](NC(=O)OC(C)(C)C)C(C)C", "note": "[Compound 38]", "values": [{"measurement": "GI50", "setting": "H-MEC-1 [1]", "result": 80.9, "unit": "nM"}, {"measurement": "IC (TGI)", "setting": "H-MEC-1 [1]", "result": 911, "unit": "nM"}, {"measurement": "GI50", "setting": "SKOV-3 [3]", "result": 684, "unit": "nM"}, {"measurement": "IC (TGI)", "setting": "SKOV-3 [3]", "result": 7420, "unit": "nM"}, {"measurement": "CC50", "setting": "[4]", "result": 9110, "unit": "nM"}, {"measurement": "CC50", "setting": "SKOV-3 [5]; SK-OV-3, read-out: LC50 SKOV-3", "result": 9110, "unit": "nM"}]}, {"molecule": "COc1cc(-c2c3c4cc(OC)c(OC(=O)[C@@H](N)CC(C)C)cc4oc(=O)c3n3ccc4cc(OC(=O)[C@@H](N)CC(C)C)c(OC)cc4c23)ccc1OC(=O)[C@@H](N)CC(C)C", "note": "[Compound 39]", "values": [{"measurement": "GI50", "setting": "H-MEC-1 [6]", "result": 6.98, "unit": "nM"}, {"measurement": "IC (TGI)", "setting": "H-MEC-1 [6]", "result": 8470, "unit": "nM"}, {"measurement": "CC50", "setting": "[4]; H-MEC-1 cells", "result": 8470, "unit": "nM"}, {"measurement": "GI50", "setting": "SKOV-3 [5]", "result": 63.4, "unit": "nM"}, {"measurement": "CC50", "setting": "SKOV-3 [5]; [7]", "result": 8470, "unit": "nM"}, {"measurement": "IC (TGI)", "setting": "SKOV-3 [5]; SK-OV-3, SKOV-3", "result": 8470, "unit": "nM"}, {"measurement": "topoisomerase I-mediated DNA cleavage sites / cleavage profile", "setting": "human topoisomerase I", "result": "Cleavage profiles identical to that of 3"}]}, {"molecule": "COc1cc(-c2c3c4cc(OC)c(OC(=O)[C@H](C)N)cc4oc(=O)c3n3ccc4cc(OC(=O)[C@H](C)N)c(OC)cc4c23)ccc1OC(=O)[C@H](C)N", "note": "[Compound 40]", "values": [{"measurement": "GI50", "setting": "SKOV-3 [5]", "result": 28.4, "unit": "nM"}, {"measurement": "CC50", "setting": "SKOV-3 [5]; [7]", "result": 9480, "unit": "nM"}, {"measurement": "IC (TGI)", "setting": "SKOV-3 [5]; SK-OV-3, SKOV-3", "result": 107, "unit": "nM"}]}, {"molecule": "COc1cc(-c2c3n(c4c(=O)oc5cc(O)c(OC)cc5c24)CCc2cc(O)c(OC)cc2-3)ccc1O", "note": "[Compound 109]", "values": [{"measurement": "GI50", "setting": "H-MEC-1 [6]", "result": 917, "unit": "nM"}, {"measurement": "IC (TGI)", "setting": "H-MEC-1 [6]", "result": 19900, "unit": "nM"}, {"measurement": "CC50", "setting": "[4]; H-MEC-1 cells", "result": 19900, "unit": "nM"}, {"measurement": "GI50", "setting": "SKOV-3 [5]", "result": 2490, "unit": "nM"}, {"measurement": "CC50", "setting": "SKOV-3 [5]; [7]", "result": 19900, "unit": "nM"}, {"measurement": "IC (TGI)", "setting": "SKOV-3 [5]; SK-OV-3, SKOV-3", "result": 11800, "unit": "nM"}]}, {"molecule": "COc1cc(-c2c3c4cc(OC)c(OC(=O)CCCCCN)cc4oc(=O)c3n3ccc4cc(OC(=O)CCCCCN)c(OC)cc4c23)ccc1OC(=O)CCCCCN", "note": "[Compound 169]", "values": [{"measurement": "GI50", "setting": "HeLa-APL; GI=growth inhibition, read-out: GI50 HELA-APL", "result": 70.5, "unit": "nM"}, {"measurement": "CC50", "setting": "HeLa-APL; cell killing (cytotoxic effect), read-out: LC50 HELA-APL", "result": 2970, "unit": "nM"}, {"measurement": "IC (TGI)", "setting": "HeLa-APL; total growth inhibition (cytostatic effect), read-out: TGI HELA-APL", "result": 530, "unit": "nM"}, {"measurement": "GI50", "setting": "HeLa; GI=growth inhibition, read-out: GI50 HELA", "result": 55.7, "unit": "nM"}, {"measurement": "CC50", "setting": "HeLa; cell killing (cytotoxic effect), read-out: LC50 HELA", "result": 4420, "unit": "nM"}, {"measurement": "IC (TGI)", "setting": "HeLa; total growth inhibition (cytostatic effect), read-out: TGI HELA", "result": 1390, "unit": "nM"}, {"measurement": "stimulation of DNA cleavage by topoisomerase I (radiolabeled DNA substrate)", "setting": "human topoisomerase I", "result": "stimulate DNA cleavage by the enzyme"}]}]}
